Experiment: Safety in phase 1/1b study (DLTs, TRAEs, TEAEs; CTCAE v4.03)
Assay type: in vivo, human
Text: Safety assessments included evaluation of DLTs, AEs, physical examinations, vital sign measurements, electrocardiogram recordings and laboratory tests.
A DLT was defined as a grade ≥ 4 hematologic abnormality lasting ≥ 4 days; grade 3 thrombocytopenia with clinically significant bleeding; febrile neutropenia; clinically significant grade ≥ 3 non-hematologic AEs not related to underlying malignancy; intolerable grade 2 AEs; or toxicity resulting in an inability to deliver 80% of the dose during the first treatment cycle.
The safety population included all patients who received ≥ 1 dose of sitravatinib. […] The PK evaluable population included all patients with sufficient concentration-time data for PK parameter evaluation. The modified intent-to-treat (mITT) population included all phase 1b patients who received ≥ 1 dose of study drug.

COCCNCc1ccc(-c2cc3nccc(Oc4ccc(NC(=O)C5(C(=O)Nc6ccc(F)cc6)CC5)cc4F)c3s2)nc1 [sitravatinib, Sitravatinib]
12 (19.4) n (%): Dysphonia TRAE, any grade (120 mg phase 1b) | TEAE leading to discontinuation (120 mg phase 1b) | Vomiting TEAE, any grade (120 mg phase 1b)
2 (3.2) n (%): Cardiac disorders TEAE, grade ≥3 (120 mg phase 1b) | Decreased appetite TEAE, grade ≥3 (120 mg phase 1b) | Musculoskeletal and connective tissue disorders TEAE, grade ≥3 (120 mg phase 1b) | Proteinuria TEAE, grade ≥3 (120 mg phase 1b) | Proteinuria TRAE, grade ≥3 (120 mg phase 1b) | Psychiatric disorders TEAE, grade ≥3 (120 mg phase 1b) | Rash TEAE, grade ≥3 (120 mg phase 1b) | Rash TRAE, grade ≥3 (120 mg phase 1b)
21 (33.9) n (%): Constipation TEAE, any grade (120 mg phase 1b) | Decreased appetite TEAE, any grade (120 mg phase 1b) | Fatigue TRAE, any grade (120 mg phase 1b) | Serious TEAE (120 mg phase 1b)
3 (3.0) n (%): ALT increased TEAE, grade ≥3 (150 mg phase 1b)
36 (58.1) n (%): Diarrhea TEAE, any grade (120 mg phase 1b)
13 (21.0) n (%): PPE syndrome TRAE, any grade (120 mg phase 1b) | Proteinuria TEAE, any grade (120 mg phase 1b)
4 (6.5) n (%): Diarrhea TEAE, grade ≥3 (120 mg phase 1b) | Diarrhea TRAE, grade ≥3 (120 mg phase 1b) | Hypokalemia TEAE, any grade (120 mg phase 1b) | Hypomagnesemia TEAE, any grade (120 mg phase 1b) | Pain in extremity TEAE, any grade (120 mg phase 1b)
38 (61.3) n (%): General disorders and administration site conditions TEAE, any grade (120 mg phase 1b) | Metabolism and nutrition disorders TEAE, any grade (120 mg phase 1b)
53 (85.5) n (%): Gastrointestinal disorders TEAE, any grade (120 mg phase 1b)
1 (1.6) n (%): ALT increased TEAE, grade ≥3 (120 mg phase 1b) | ALT increased TRAE, grade ≥3 (120 mg phase 1b) | Decreased appetite TRAE, grade ≥3 (120 mg phase 1b) | Dyspnea TEAE, grade ≥3 (120 mg phase 1b) | Headache TEAE, grade ≥3 (120 mg phase 1b) | Hypophosphatemia TEAE, grade ≥3 (120 mg phase 1b) | Stomatitis TEAE, grade ≥3 (120 mg phase 1b) | Stomatitis TRAE, grade ≥3 (120 mg phase 1b) | UTI TEAE, grade ≥3 (120 mg phase 1b)
10 (16.1) n (%): Anemia TEAE, any grade (120 mg phase 1b) | Dizziness TEAE, any grade (120 mg phase 1b) | Weight decreased TEAE, any grade (120 mg phase 1b)
46 (74.2) n (%): TEAE leading to treatment modification (120 mg phase 1b)
20 (32.3) n (%): Endocrine disorders TEAE, any grade (120 mg phase 1b)
18 (29.0) n (%): Infections and infestations TEAE, any grade (120 mg phase 1b)
34 (54.8) n (%): Investigations TEAE, any grade (120 mg phase 1b) | Respiratory, thoracic and mediastinal disorders TEAE, any grade (120 mg phase 1b)
24 (38.7) n (%): Hypertension TRAE, any grade (120 mg phase 1b)
28 (45.2) n (%): Musculoskeletal and connective tissue disorders TEAE, any grade (120 mg phase 1b) | Nervous system disorders TEAE, any grade (120 mg phase 1b)
8.1%: Patients with serious TRAEs (120 mg arm)
51.6%: Patients with grade ≥ 3 TRAEs (120 mg arm)
25 (40.3) n (%): Hypertension TEAE, any grade (120 mg phase 1b)
7 (11.3) n (%): Asthenia TEAE, any grade (120 mg phase 1b) | Blood and lymphatic system disorders TEAE, grade ≥3 (120 mg phase 1b) | Cough TEAE, any grade (120 mg phase 1b) | Dry mouth TEAE, any grade (120 mg phase 1b) | Dry mouth TRAE, any grade (120 mg phase 1b) | Fatigue TEAE, grade ≥3 (120 mg phase 1b) | Infections and infestations TEAE, grade ≥3 (120 mg phase 1b) | Investigations TEAE, grade ≥3 (120 mg phase 1b) | Psychiatric disorders TEAE, any grade (120 mg phase 1b) | TRAE leading to discontinuation (120 mg phase 1b) | Weight decreased TRAE, any grade (120 mg phase 1b)
11.3%: Patients discontinued due to TRAEs (120 mg)
0 n (%): AST increased TEAE, grade ≥3 (120 mg phase 1b) | AST increased TRAE, grade ≥3 (120 mg phase 1b) | Abdominal pain TRAE, grade ≥3 (120 mg phase 1b) | Asthenia TEAE, grade ≥3 (120 mg phase 1b) | Back pain TEAE, grade ≥3 (120 mg phase 1b) | Blood creatinine increased TEAE, grade ≥3 (120 mg phase 1b) | Constipation TEAE, grade ≥3 (120 mg phase 1b) | Constipation TRAE, grade ≥3 (120 mg phase 1b) | Cough TEAE, grade ≥3 (120 mg phase 1b) | Dehydration TEAE, grade ≥3 (120 mg phase 1b) | Dizziness TEAE, grade ≥3 (120 mg phase 1b) | Dizziness TRAE, grade ≥3 (120 mg phase 1b) | Dry mouth TEAE, grade ≥3 (120 mg phase 1b) | Dry mouth TRAE, grade ≥3 (120 mg phase 1b) | Dysphonia TEAE, grade ≥3 (120 mg phase 1b) | Dysphonia TRAE, grade ≥3 (120 mg phase 1b) | Edema peripheral TEAE, grade ≥3 (120 mg phase 1b) | Hypokalemia TEAE, grade ≥3 (120 mg phase 1b) | Hypomagnesemia TEAE, grade ≥3 (120 mg phase 1b) | Hypothyroidism TRAE, grade ≥3 (120 mg phase 1b) | Injury, poisoning, procedural complications TEAE, grade ≥3 (120 mg phase 1b) | Nausea TEAE, grade ≥3 (120 mg phase 1b) | Nausea TRAE, grade ≥3 (120 mg phase 1b) | Pain in extremity TEAE, grade ≥3 (120 mg phase 1b) | TRAE leading to death (120 mg phase 1b) | Vomiting TEAE, grade ≥3 (120 mg phase 1b) | Vomiting TRAE, grade ≥3 (120 mg phase 1b) | Weight decreased TEAE, grade ≥3 (120 mg phase 1b) | Weight decreased TRAE, grade ≥3 (120 mg phase 1b)
58 (93.5) n (%): Any TRAE (120 mg phase 1b)
26 (41.9) n (%): Fatigue TEAE, any grade (120 mg phase 1b)
3 (4.8) n (%): Abdominal pain TEAE, grade ≥3 (120 mg phase 1b) | Anemia TEAE, grade ≥3 (120 mg phase 1b) | Blood creatinine increased TEAE, any grade (120 mg phase 1b) | Hyponatremia TEAE, grade ≥3 (120 mg phase 1b) | Hypophosphatemia TEAE, any grade (120 mg phase 1b) | Lipase increased TEAE, grade ≥3 (120 mg phase 1b) | Nervous system disorders TEAE, grade ≥3 (120 mg phase 1b) | Respiratory, thoracic and mediastinal disorders TEAE, grade ≥3 (120 mg phase 1b)
15 (24.2) n (%): ALT increased TRAE, any grade (120 mg phase 1b)
32 (51.6) n (%): TRAE grade ≥3 (120 mg phase 1b) | Vascular disorders TEAE, any grade (120 mg phase 1b)
31 (50.0) n (%): Diarrhea TRAE, any grade (120 mg phase 1b)
5 (8.1) n (%): Dyspnea TEAE, any grade (120 mg phase 1b) | Renal and urinary disorders TEAE, grade ≥3 (120 mg phase 1b) | Serious TRAE (120 mg phase 1b)
22.2%: Patients with serious TRAEs (150 mg arm)
17.2%: Patients discontinued due to TRAEs (150 mg)
16 (25.8) n (%): AST increased TEAE, any grade (120 mg phase 1b) | Blood and lymphatic system disorders TEAE, any grade (120 mg phase 1b) | Dysphonia TEAE, any grade (120 mg phase 1b)
42 (67.7) n (%): TRAE leading to treatment modification (120 mg phase 1b)
60 (96.8) n (%): Any TEAE (120 mg phase 1b)
8 (12.9) n (%): Abdominal pain TRAE, any grade (120 mg phase 1b) | Dehydration TEAE, any grade (120 mg phase 1b) | General disorders and administration site conditions TEAE, grade ≥3 (120 mg phase 1b) | Lipase increased TEAE, any grade (120 mg phase 1b) | Neoplasms benign, malignant, unspecified TEAE, grade ≥3 (120 mg phase 1b) | Skin and subcutaneous tissue disorders TEAE, grade ≥3 (120 mg phase 1b) | TEAE leading to death (120 mg phase 1b)
12 (19.4) 12 (19.4) n (%): Hypertension TEAE, grade ≥3 (120 mg phase 1b) | Vascular disorders TEAE, grade ≥3 (120 mg phase 1b)
17 (27.4) n (%): ALT increased TEAE, any grade (120 mg phase 1b) | Decreased appetite TRAE, any grade (120 mg phase 1b)
6 (9.7) n (%): Back pain TEAE, any grade (120 mg phase 1b) | Cardiac disorders TEAE, any grade (120 mg phase 1b) | Dizziness TRAE, any grade (120 mg phase 1b) | Edema peripheral TEAE, any grade (120 mg phase 1b) | Fatigue TRAE, grade ≥3 (120 mg phase 1b) | Hyponatremia TEAE, any grade (120 mg phase 1b) | PPE syndrome TEAE, grade ≥3 (120 mg phase 1b) | PPE syndrome TRAE, grade ≥3 (120 mg phase 1b) | Rash TRAE, any grade (120 mg phase 1b) | UTI TEAE, any grade (120 mg phase 1b)
25 (25.3) n (%): ALT increased TEAE, any grade (150 mg phase 1b)
9 (14.5) n (%): Rash TEAE, any grade (120 mg phase 1b) | Vomiting TRAE, any grade (120 mg phase 1b)
45 (72.6) n (%): TEAE grade ≥3 (120 mg phase 1b)
14 (22.6) n (%): AST increased TRAE, any grade (120 mg phase 1b) | Abdominal pain TEAE, any grade (120 mg phase 1b) | Hypothyroidism TRAE, any grade (120 mg phase 1b) | Nausea TRAE, any grade (120 mg phase 1b) | PPE syndrome TEAE, any grade (120 mg phase 1b)
11 (17.7) n (%): Constipation TRAE, any grade (120 mg phase 1b) | Hypertension TRAE, grade ≥3 (120 mg phase 1b) | Injury, poisoning, procedural complications TEAE, any grade (120 mg phase 1b) | Metabolism and nutrition disorders TEAE, grade ≥3 (120 mg phase 1b) | Neoplasms benign, malignant, unspecified TEAE, any grade (120 mg phase 1b) | Proteinuria TRAE, any grade (120 mg phase 1b) | Stomatitis TEAE, any grade (120 mg phase 1b) | Stomatitis TRAE, any grade (120 mg phase 1b)
19 (30.6) n (%): Hypothyroidism TEAE, any grade (120 mg phase 1b) | Nausea TEAE, any grade (120 mg phase 1b) | Renal and urinary disorders TEAE, any grade (120 mg phase 1b)
61.6%: Patients with grade ≥ 3 TRAEs (150 mg arm)
33 (53.2) n (%): Skin and subcutaneous tissue disorders TEAE, any grade (120 mg phase 1b)

Source: paper PMC9395446, “First-in-human phase 1/1b study to evaluate sitravatinib in patients with advanced solid tumors” (Investigational New Drugs, 2022)
